Data: ChEMBL document CHEMBL5154886, “Novel Capsid Inhibitors for Treating HIV Infection” (ACS Med Chem Lett, 2022)

System: Human immunodeficiency virus 1
Test: Antiviral activity against HIV-1 IIIB infected in human MT4 cells assessed as inhibition of viral replication measured after 5 days by Celltiter-Glo assay
Assay type: functional, organism-based
Conditions: Human immunodeficiency virus 1, IIIB, MT4, 120 h

Row | Structure (SMILES) | EC50 [nM]
1 | COCc1nc2nc([C@H](Cc3cc(F)cc(F)c3)NC(=O)Cn3nc(C(F)(F)F)c4c3C(F)(F)[C@@H]3C[C@H]43)c(-c3ccc(Cl)c4c(NS(C)(=O)=O)nn(C)c34)cc2[nH]1 | 2.1
2 | COCc1nc2nc([C@H](Cc3cc(F)cc(F)c3)NC(=O)Cn3nc(C(F)F)c4c3C(F)(F)[C@@H]3C[C@H]43)c(-c3ccc(Cl)c4c(NS(C)(=O)=O)nn(C)c34)cc2[nH]1 | 1.5
3 | Cc1nc2nc([C@H](Cc3cc(F)cc(F)c3)NC(=O)Cn3nc(C(F)(F)F)c4c3C(F)(F)[C@@H]3C[C@H]43)c(-c3ccc(Cl)c4c(NS(C)(=O)=O)nn(C)c34)cc2[nH]1 | 2.4
4 | Cn1cc(-c2nc3nc([C@H](Cc4cc(F)cc(F)c4)NC(=O)Cn4nc(C(F)F)c5c4C(F)(F)[C@@H]4C[C@H]54)c(-c4ccc(Cl)c5c(NS(C)(=O)=O)nn(C)c45)cc3[nH]2)cn1 | 3
5 | Cc1nc2nc([C@H](Cc3cc(F)cc(F)c3)NC(=O)Cn3nc(C(F)F)c4c3C(F)(F)[C@@H]3C[C@H]43)c(-c3ccc(Cl)c4c(NS(C)(=O)=O)nn(C)c34)cc2[nH]1 | 1.6
6 | Cn1nc(N)c2cccc(-c3cc4sc(N5CC(C)(O)C5)nc4nc3[C@H](Cc3cc(F)cc(F)c3)NC(=O)Cn3nc(C(F)F)c4c3C3CC3CC4)c21 (stereo partly specified) | 1.3
